Experimental data as given in PubChem BioAssay (NCI).
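Five compound concentrations were applied to cells in 96-well plates for 48 hours; endpoints were derived by simple linear interpolation of the resulting dose-response curve. TGI denotes the concentration required for complete inhibition of growth.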 *1 amine or outer side, *2 acyl side, *3 side chain or, on linkers, in order; H or OH if unused. Where a SMILES comes first, the peptide text is derived from it. [ ]: non-standard residue; d: D form. The star is where a group is joined. ξ: configuration not given here. X53 = CC(C)C[C@H](N[*:1])C1=N[C@H](C(=O)[*:2])CS1; Ile(3ξ) = CCC(C)[C@H](N)C(=O)O; Allyl(1,1-Me2) = C=CC(C)(C)*

What was measured:
Test in all cases: NCI-60 cell line screen, 48 h
HS 578T breast = tested on: HS 578T breast
OVCAR-4 ovarian = tested on: OVCAR-4 ovarian
SF-539 CNS = tested on: SF-539 CNS
DU-145 prostate = tested on: DU-145 prostate
RXF 393 renal = tested on: RXF 393 renal
MOLT-4 leukemia = tested on: MOLT-4 leukemia
U251 CNS = tested on: U251 CNS
MDA-N = tested on: MDA-N
NCI/ADR-RES ovarian = tested on: NCI/ADR-RES ovarian
MCF7 breast = tested on: MCF7 breast
SK-MEL-5 melanoma = tested on: SK-MEL-5 melanoma
A549 NSCLC = tested on: A549 NSCLC
MALME-3M melanoma = tested on: MALME-3M melanoma
NCI-H23 lung = tested on: NCI-H23 lung
SF-295 CNS = tested on: SF-295 CNS
SK-MEL-28 melanoma = tested on: SK-MEL-28 melanoma
KM12 colon = tested on: KM12 colon
MDA-MB-435 = tested on: MDA-MB-435
SR leukemia = tested on: SR leukemia
M14 melanoma = tested on: M14 melanoma
UACC-62 melanoma = tested on: UACC-62 melanoma
COLO 205 colon = tested on: COLO 205 colon
SNB-75 CNS = tested on: SNB-75 CNS
OVCAR-3 ovarian = tested on: OVCAR-3 ovarian
IGROV1 ovarian = tested on: IGROV1 ovarian
OVCAR-8 ovarian = tested on: OVCAR-8 ovarian
SNB-19 CNS = tested on: SNB-19 CNS
HOP-92 NSCLC = tested on: HOP-92 NSCLC
CCRF-CEM leukemia = tested on: CCRF-CEM leukemia
HT29 colon = tested on: HT29 colon
HCC-2998 colon = tested on: HCC-2998 colon
HCT-15 colon = tested on: HCT-15 colon
HL-60(TB) leukemia = tested on: HL-60(TB) leukemia
K-562 leukemia = tested on: K-562 leukemia
PC-3 prostate = tested on: PC-3 prostate
EKVX NSCLC = tested on: EKVX NSCLC
TK-10 renal = tested on: TK-10 renal
HCT-116 colon = tested on: HCT-116 colon
NCI-H226 lung = tested on: NCI-H226 lung
BT-549 breast = tested on: BT-549 breast
HOP-62 NSCLC = tested on: HOP-62 NSCLC
CAKI-1 renal = tested on: CAKI-1 renal
SK-OV-3 ovarian = tested on: SK-OV-3 ovarian
T-47D breast = tested on: T-47D breast
ACHN renal = tested on: ACHN renal
RPMI-8226 leukemia = tested on: RPMI-8226 leukemia
SF-268 CNS = tested on: SF-268 CNS
A498 renal = tested on: A498 renal
MDA-MB-231 breast = tested on: MDA-MB-231 breast
786-0 renal = tested on: 786-0 renal
UO-31 renal = tested on: UO-31 renal
UACC-257 melanoma = tested on: UACC-257 melanoma
NCI-H522 lung = tested on: NCI-H522 lung
SK-MEL-2 melanoma = tested on: SK-MEL-2 melanoma
OVCAR-5 ovarian = tested on: OVCAR-5 ovarian
SW-620 colon = tested on: SW-620 colon
SN12C renal = tested on: SN12C renal
NCI-H460 lung = tested on: NCI-H460 lung
LOX IMVI melanoma = tested on: LOX IMVI melanoma

SMILES: C1CSC2=C(S1)SC1=C(S2)SC(=C2SC3=C(SC4=C(SCCS4)S3)S2)S1
- TGI (HS 578T breast): > 100 µM
- TGI (OVCAR-4 ovarian): > 100 µM
- TGI (SF-539 CNS): > 100 µM
- TGI (DU-145 prostate): > 100 µM
- TGI (RXF 393 renal): > 100 µM
- TGI (MOLT-4 leukemia): > 100 µM
- TGI (U251 CNS): > 100 µM
- TGI (MDA-N): > 100 µM
- TGI (NCI/ADR-RES ovarian): > 100 µM
- TGI (MCF7 breast): > 100 µM
- TGI (SK-MEL-5 melanoma): > 100 µM
- TGI (A549 NSCLC): > 100 µM
- TGI (MALME-3M melanoma): > 100 µM
- TGI (NCI-H23 lung): > 100 µM
- TGI (SF-295 CNS): > 100 µM
- TGI (SK-MEL-28 melanoma): > 100 µM
- TGI (KM12 colon): > 100 µM
- TGI (MDA-MB-435): > 100 µM
- TGI (SR leukemia): > 100 µM
- TGI (M14 melanoma): > 100 µM
- TGI (UACC-62 melanoma): > 100 µM
- TGI (COLO 205 colon): > 100 µM
- TGI (SNB-75 CNS): > 100 µM
- TGI (OVCAR-3 ovarian): > 100 µM
- TGI (IGROV1 ovarian): > 100 µM
- TGI (OVCAR-8 ovarian): > 100 µM
- TGI (SNB-19 CNS): > 100 µM
- TGI (HOP-92 NSCLC): > 100 µM
- TGI (CCRF-CEM leukemia): > 100 µM
- TGI (HT29 colon): > 100 µM
- TGI (HCC-2998 colon): > 100 µM
- TGI (HCT-15 colon): > 100 µM
- TGI (HL-60(TB) leukemia): > 100 µM
- TGI (K-562 leukemia): > 100 µM
- TGI (PC-3 prostate): > 100 µM
- TGI (EKVX NSCLC): > 100 µM
- TGI (TK-10 renal): > 100 µM
- TGI (HCT-116 colon): > 100 µM
- TGI (NCI-H226 lung): > 100 µM
- TGI (BT-549 breast): > 100 µM
- TGI (HOP-62 NSCLC): > 100 µM
- TGI (CAKI-1 renal): > 100 µM
- TGI (SK-OV-3 ovarian): > 100 µM
- TGI (T-47D breast): > 100 µM
- TGI (ACHN renal): > 100 µM
- TGI (RPMI-8226 leukemia): > 100 µM
- TGI (SF-268 CNS): > 100 µM
- TGI (A498 renal): > 100 µM
- TGI (MDA-MB-231 breast): > 100 µM
- TGI (786-0 renal): > 100 µM
- TGI (UO-31 renal): > 100 µM
- TGI (UACC-257 melanoma): > 100 µM
- TGI (NCI-H522 lung): > 100 µM
- TGI (SK-MEL-2 melanoma): > 100 µM
- TGI (OVCAR-5 ovarian): > 100 µM
- TGI (SW-620 colon): > 100 µM
- TGI (SN12C renal): > 100 µM
- TGI (NCI-H460 lung): > 100 µM

SMILES: Clc1ccc(Cc2nc3cc(Cl)c(Cl)cc3n2CC2CCCN3CCCCC23)cc1Cl (configuration not stated)
- TGI (HS 578T breast): 19.2 µM
- TGI (OVCAR-4 ovarian): 20.3 µM
- TGI (SF-539 CNS): 4.17 µM
- TGI (DU-145 prostate): 19.4 µM
- TGI (RXF 393 renal): 30.7 µM
- TGI (MOLT-4 leukemia): > 100 µM
- TGI (U251 CNS): 13.7 µM
- TGI (MDA-N): 16.5 µM
- TGI (NCI/ADR-RES ovarian): 17.2 µM
- TGI (LOX IMVI melanoma): 6 µM
- TGI (MCF7 breast): 7.15 µM
- TGI (SK-MEL-5 melanoma): 4.38 µM
- TGI (A549 NSCLC): 20 µM
- TGI (MALME-3M melanoma): 3.91 µM
- TGI (SF-295 CNS): 10.5 µM
- TGI (SK-MEL-28 melanoma): 10.7 µM
- TGI (KM12 colon): 7.51 µM
- TGI (MDA-MB-435): 17.2 µM
- TGI (SR leukemia): 7.6 µM
- TGI (M14 melanoma): 4.04 µM
- TGI (UACC-62 melanoma): 5.42 µM
- TGI (COLO 205 colon): 4.83 µM
- TGI (SNB-75 CNS): 12 µM
- TGI (OVCAR-3 ovarian): 33.2 µM
- TGI (IGROV1 ovarian): 15.4 µM
- TGI (OVCAR-8 ovarian): 22.6 µM
- TGI (SNB-19 CNS): 8.2 µM
- TGI (HOP-92 NSCLC): 22.8 µM
- TGI (HT29 colon): 6.85 µM
- TGI (HCC-2998 colon): 3.45 µM
- TGI (HCT-15 colon): 17.1 µM
- TGI (HL-60(TB) leukemia): 5.93 µM
- TGI (K-562 leukemia): > 100 µM
- TGI (PC-3 prostate): 14.1 µM
- TGI (EKVX NSCLC): 11.1 µM
- TGI (TK-10 renal): 19.5 µM
- TGI (HCT-116 colon): 10.7 µM
- TGI (NCI-H226 lung): 26.8 µM
- TGI (BT-549 breast): 21.4 µM
- TGI (HOP-62 NSCLC): 24.5 µM
- TGI (CAKI-1 renal): 15.9 µM
- TGI (SK-OV-3 ovarian): 13.4 µM
- TGI (T-47D breast): 33.4 µM
- TGI (ACHN renal): 16.1 µM
- TGI (RPMI-8226 leukemia): > 100 µM
- TGI (SF-268 CNS): 15.8 µM
- TGI (A498 renal): 21 µM
- TGI (MDA-MB-231 breast): 7.84 µM
- TGI (786-0 renal): 12.7 µM
- TGI (UO-31 renal): 1.25 µM
- TGI (UACC-257 melanoma): 10.6 µM
- TGI (NCI-H522 lung): 3.54 µM
- TGI (SK-MEL-2 melanoma): 19.7 µM
- TGI (OVCAR-5 ovarian): 12.3 µM
- TGI (SW-620 colon): 4.9 µM
- TGI (SN12C renal): 15.8 µM
- TGI (NCI-H460 lung): 9.75 µM

SMILES: C=CC(C)(C)OC[C@@H]1NC(=O)CNC(=O)[C@@H]2CCCN2C(=O)[C@H](C(C)CC)NC(=O)[C@@H]2CSC(=N2)[C@H](CC(C)C)NC1=O (some centres not stated) (cyclo(GS(Allyl(1,1-Me2))[X53][Ile(3ξ)]P))
- TGI (HS 578T breast): > 100 µM
- TGI (OVCAR-4 ovarian): > 100 µM
- TGI (SF-539 CNS): > 100 µM
- TGI (DU-145 prostate): > 100 µM
- TGI (RXF 393 renal): > 100 µM
- TGI (MOLT-4 leukemia): 76.1 µM
- TGI (U251 CNS): > 100 µM
- TGI (MDA-N): > 100 µM
- TGI (NCI/ADR-RES ovarian): > 100 µM
- TGI (LOX IMVI melanoma): > 100 µM
- TGI (MCF7 breast): > 100 µM
- TGI (SK-MEL-5 melanoma): > 100 µM
- TGI (A549 NSCLC): > 100 µM
- TGI (MALME-3M melanoma): > 100 µM
- TGI (NCI-H23 lung): > 100 µM
- TGI (SF-295 CNS): > 100 µM
- TGI (KM12 colon): > 100 µM
- TGI (MDA-MB-435): > 100 µM
- TGI (SR leukemia): > 100 µM
- TGI (M14 melanoma): > 100 µM
- TGI (UACC-62 melanoma): > 100 µM
- TGI (COLO 205 colon): > 100 µM
- TGI (SNB-75 CNS): > 100 µM
- TGI (OVCAR-3 ovarian): > 100 µM
- TGI (IGROV1 ovarian): > 100 µM
- TGI (OVCAR-8 ovarian): > 100 µM
- TGI (SNB-19 CNS): > 100 µM
- TGI (HOP-92 NSCLC): > 100 µM
- TGI (CCRF-CEM leukemia): > 100 µM
- TGI (HT29 colon): > 100 µM
- TGI (HCC-2998 colon): > 100 µM
- TGI (HCT-15 colon): > 100 µM
- TGI (HL-60(TB) leukemia): 64.4 µM
- TGI (K-562 leukemia): > 100 µM
- TGI (PC-3 prostate): > 100 µM
- TGI (EKVX NSCLC): > 100 µM
- TGI (TK-10 renal): > 100 µM
- TGI (HCT-116 colon): > 100 µM
- TGI (NCI-H226 lung): > 100 µM
- TGI (BT-549 breast): > 100 µM
- TGI (HOP-62 NSCLC): > 100 µM
- TGI (CAKI-1 renal): > 100 µM
- TGI (SK-OV-3 ovarian): > 100 µM
- TGI (T-47D breast): > 100 µM
- TGI (ACHN renal): > 100 µM
- TGI (RPMI-8226 leukemia): 94.1 µM
- TGI (SF-268 CNS): > 100 µM
- TGI (A498 renal): > 100 µM
- TGI (MDA-MB-231 breast): > 100 µM
- TGI (786-0 renal): > 100 µM
- TGI (UO-31 renal): > 100 µM
- TGI (UACC-257 melanoma): > 100 µM
- TGI (NCI-H522 lung): > 100 µM
- TGI (SK-MEL-2 melanoma): > 100 µM
- TGI (OVCAR-5 ovarian): > 100 µM
- TGI (SN12C renal): > 100 µM
- TGI (NCI-H460 lung): > 100 µM
